Measured values published in patent US11028087B2, “2,6-disubstituted-9-cyclopentyl-9H-purines, use thereof as medicaments, and pharmaceutical compositions” (UNIVERZITA PALACKEHO V OLOMOUCI, priority 2017, dated 2021).

Tests used:
[1] = system: Kasumi-1 (acute myeloid leukemia, KIT mutation Asn822Lys); experiment: Calcein AM cytotoxicity assay; assay type: cell-based; conditions: Homo sapiens, 72 h; Kasumi-1; Calcein AM, three days; read-out: EC50 values (μM) Kasumi-1
How it was run: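 Kasumi-1 cells were grown in RPMI-1640 + 15% FBS, other lines at 37° C., 5% CO2, and seeded the day before compound addition in triplicates at various concentrations. After 3 days, viability was read with Calcein AM (1 μg/ml final, 1 h) as live-cell fluorescence at ex 485/em 538 nm.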

[2] = system: H1703 (non-small cell lung carcinoma, PDGFRA amplification); experiment: Calcein AM cytotoxicity assay; assay type: cell-based; conditions: Homo sapiens, NCI-H1703, 72 h, three days
How it was run: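 Cells seeded one day before compound addition (various concentrations, triplicates) and exposed for three days at 37° C, 5% CO2. Viability then read as esterase-generated green calcein fluorescence after 1 h with Calcein AM at 1 μg/ml final; signal reflects number of viable cells.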

[3] = target: T1, CDK1/Cyclin B (Homo sapiens, UniProt P06493); experiment: Kinase inhibition assay with [γ-33P]ATP; assay type: biochemical; conditions: histone H1, 15 μM ATP
T1 construct: made in house; host or cells: Sf9 insect cells, baculoviral infection
How it was run: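 Radiometric [γ-33P]ATP assay in HEPES pH 7.5 with Mg2+/Mn2+: CDK1/Cyclin B (Sf9-expressed) and purchased CDK5/p35 with 1 mg/mL histone H1 at 15 and 0.15 μM ATP respectively; FLT3 WT and FLT3-ITD with AGLT substrate at 1 μM ATP. Reactions stopped with H3PO4, spotted onto phosphocellulose and washed.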

[4] = system: HL60; experiment: Calcein AM cytotoxicity assay; assay type: cell-based; conditions: Homo sapiens, HL-60, 72 h, three days
[5] = system: ERK1/2, STAT5 and STAT3 phosphorylation in MV4-11 cells; experiment: Immunoblotting of signaling downstream of FLT3 in MV4-11 cells; assay type: cell-based; conditions: 1 hour (FIG. 3)
Description: To confirm kinase-inhibitory activity of novel compounds in cells, MV4-11 cells with FLT3-ITD and EOL-1 cells expressing FIP1L1-PDGFRA fusion protein were analyzed upon 1 hour treatment. Treated cells were harvested by centrifugation and homogenized in an extraction buffer (10 mM HEPES pH 7.4, 1 mM EDTA, 1 mM EGTA, 5 mM KC, 1.5 mM MgCl2, 0.5% NP40, supplemented with 1 mM DTT, 1 mM NaF, 0.1 mM Na3VO4, 1 mM PMSF, 0.5 μg/ml Leupeptin, 2 μg/ml Aprotinin) on ice for […]. The homogenates were clarified by centrifugation at 10,000 g for 30 min at 4° C., proteins were quantified by the Bradford method and then diluted to the same concentration. […] of total proteins were separated by SDS-polyacrylamide gel electrophoresis and transferred onto nitrocellulose membranes. Membranes were blocked in 5% BSA in TBS with 0.1% Tween 20 and probed overnight with specific antibodies for FLT3 (clone 8F2), phospho-FLT3 Y589/591 (30D4), phospho-FLT3 Y591 (33G6), phospho-FLT3 Y842 (10A8), phospho-FLT3 Y969 (C24D9), PDGFRA (D1E1E), phospho-PDGFRA Y849/PDGFRB Y857 (C43E9), phospho-PDGFRA Y1018, p44/42 MAPK (ERK1/2), phospho-p44/42 MAPK (ERK1/2) (Thr202/Tyr204), STAT5, Phospho-STAT5(Tyr694), STAT3 (79D7), phospho-STAT3 (Tyr705) (D3A7), MEK1/2 (D1A5), phospho-MEK1/2 (Ser217/221) purchased from Cell Signaling, USA, α-tubulin (DM1A, Sigma Aldrich, USA) and PCNA (PC-10, gifted by Dr. B. Vojtesek). […]

T1 sequence (P06493 whole entry, species assumed): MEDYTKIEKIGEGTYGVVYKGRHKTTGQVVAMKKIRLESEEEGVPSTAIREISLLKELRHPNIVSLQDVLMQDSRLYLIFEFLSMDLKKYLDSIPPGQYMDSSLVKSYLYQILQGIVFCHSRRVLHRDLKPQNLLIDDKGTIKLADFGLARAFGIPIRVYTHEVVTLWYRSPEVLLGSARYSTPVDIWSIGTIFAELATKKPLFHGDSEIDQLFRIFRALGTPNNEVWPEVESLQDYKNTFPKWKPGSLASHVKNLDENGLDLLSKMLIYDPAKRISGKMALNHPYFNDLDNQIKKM
T1 sequence (P14635 whole entry partner, species assumed): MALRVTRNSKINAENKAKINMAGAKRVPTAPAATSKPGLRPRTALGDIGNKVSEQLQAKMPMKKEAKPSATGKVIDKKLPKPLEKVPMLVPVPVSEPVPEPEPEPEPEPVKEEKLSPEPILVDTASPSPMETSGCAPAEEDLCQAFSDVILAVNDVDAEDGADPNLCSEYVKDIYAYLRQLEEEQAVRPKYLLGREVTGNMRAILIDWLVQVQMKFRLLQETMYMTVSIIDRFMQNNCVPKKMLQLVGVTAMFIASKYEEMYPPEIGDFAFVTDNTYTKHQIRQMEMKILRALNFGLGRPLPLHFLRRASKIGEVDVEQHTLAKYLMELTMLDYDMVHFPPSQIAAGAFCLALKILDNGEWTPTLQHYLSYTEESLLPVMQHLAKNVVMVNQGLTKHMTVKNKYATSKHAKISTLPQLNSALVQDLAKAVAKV

Row | SMILES | EC50 [1] | EC50 [2] | IC50 [3] | EC50 [4] | phosphorylation of ERK1/2, STAT5 and STAT3 [5]
1 | NC1CCC(Nc2nc(Nc3ccc(N4CCOCC4)cc3)c3ncn(C4CCCC4)c3n2)CC1 (stereo not shown) [Compound 1] | 0.944 µM | 0.189 µM | – | – | –
2 | NC1CCC(Nc2nc(Nc3ccc(CN4CCNCC4)cc3)c3ncn(C4CCCC4)c3n2)CC1 (stereo not shown) [Compound 2] | 0.481 µM | – | 0.045 µM | 3.51 µM | –
3 | CN1CCN(C(=O)c2ccc(Nc3nc(NC4CCC(N)CC4)nc4c3ncn4C3CCCC3)cc2)CC1 (stereo not shown) [Compound 3] | 1.23 µM | – | 0.034 µM | 1.29 µM | –
4 | CN1CC2(C1)CN(c1ccc(Nc3nc(NC4CCC(O)CC4)nc4c3ncn4C3CCCC3)cc1)C2 (stereo not shown) [Compound 7] | – | – | 0.013 µM | – | –
5 | NCCNc1nc(Nc2ccc(CN3CCNCC3)cc2)c2ncn(C3CCCC3)c2n1 [Compound 14] | 0.781 µM | – | 0.037 µM | 2.68 µM | –
6 | CN1CCN(C(=O)c2ccc(Nc3nc(NCCCCN)nc4c3ncn4C3CCCC3)cc2)CC1 [Compound 27] | 0.637 µM | – | – | 0.989 µM | –
7 | NCCCCNc1nc(Nc2ccc(N3CC4(COC4)C3)nc2)c2ncn(C3CCCC3)c2n1 [Compound 28] | 0.839 µM | 0.214 µM | – | – | –
8 | CN(C)CCNc1nc(Nc2ccc(CN3CCOCC3)nc2)c2ncn(C3CCCC3)c2n1 [Compound 172] | 1.5 µM | 0.35 µM | – | – | –
9 | NC1CCC(Nc2nc(Nc3ccc(N4CCCC4)cc3)c3ncn(C4CCCC4)c3n2)CC1 (stereo not shown) [Compound 263] | 0.569 µM | – | 0.082 µM | 3.93 µM | –
10 | NC1CCC(Nc2nc(Nc3ccc(CN4CCOCC4)cc3)c3ncn(C4CCCC4)c3n2)CC1 (stereo not shown) [Compound 264] | – | – | – | – | reduced phosphorylation
11 | NCCCCNc1nc(Nc2ccc(N3CCOCC3)cc2)c2ncn(C3CCCC3)c2n1 [Compound 265] | – | 0.482 µM | – | – | –
12 | CCN1CCN(c2ccc(Nc3nc(NCCCCN)nc4c3ncn4C3CCCC3)cc2)CC1 [Compound 266] | – | 0.978 µM | – | – | –
13 | NCCCCNc1nc(Nc2ccc(CN3CCOCC3)cc2)c2ncn(C3CCCC3)c2n1 [Compound 270] | – | – | – | – | reduced phosphorylation
14 | NC1CCC(Nc2nc(Nc3ccc(N4CC5(COC5)C4)cc3)c3ncn(C4CCCC4)c3n2)CC1 (stereo not shown) [Compound 272] | 0.773 µM | 0.412 µM | 0.094 µM | – | –
